Assay results published in US20060104969A1, “Compositions and methods for enhancing structural and functional nervous system reorganization and recovery” (Massachusetts Institute of Technology, priority 2004, published 2006).

B1: plasmin (protein, UniProt P00747 20-580; P00747 581-810, looked up)
Plasmin heavy chain A: EPLDDYVNTQGASLFSVTKKQLGAGSIEECAAKCEEDEEFTCRAFQYHSKEQQCVIMAENRKSSIIIRMRDVVLFEKKVYLSECKTGNGKNYRGTMSKTKNGITCQKWSSTSPHRPRFSPATHPSEGLEENYCRNPDNDPQGPWCYTTDPEKRYDYCDILECEEECMHCSGENYDGKISKTMSGLECQAWDSQSPHAHGYIPSKFPNKNLKKNYCRNPDRELRPWCFTTDPNKRWELCDIPRCTTPPPSSGPTYQCLKGTGENYRGNVAVTVSGHTCQHWSAQTPHTHNRTPENFPCKNLDENYCRNPDGKRAPWCHTTNSQVRWEYCKIPSCDSSPVSTEQLAPTAPPELTPVVQDCYHGDGQSYRGTSSTTTTGKKCQSWSSMTPHRHQKTPENYPNAGLTMNYCRNPDADKGPWCFTTDPSVRWEYCNLKKCSGTEASVVAPPPVVLLPDVETPSEEDCMFGNGKGYRGKRATTVTGTPCQDWAAQEPHRHSIFTPETNPRAGLEKNYCRNPDGDVGGPWCYTTNPRKLYDYCDVPQCAAPSFDCGKPQVEPKKCPGR
Plasmin light chain B: VVGGCVAHPHSWPWQVSLRTRFGMHFCGGTLISPEWVLTAAHCLEKSPRPSSYKVILGAHQEVNLEPHVQEIEVSRLFLEPTRKDIALLKLSSPAVITDKVIPACLPSPNYVVADRTECFITGWGETQGTFGAGLLKEAQLPVIENKVCNRYEFLNGRVQSTELCAGHLAGGTDSCQGDSGGPLVCFEKDKYILQGVTSWGLGCARPNKPGVYVRVSRFVTWIEGVMRNN
modifications: Plasmin
notes: serine protease whose major substrate is fibrin (Sigma)

Legend:
axon growth = conditions: cited from earlier work
[1] = system: dendritic spines of layer V pyramidal neurons in visual cortex slices; assay: Spine motility in acute visual cortex slices before and after enzyme application (two-photon imaging); format: cell-based, mice; conditions: p28 non-deprived slices; 45 minute enzyme application; tPA 0.5 μg/mL without exogenous plasminogen, plasmin 0.2 U/mL; p<0.0001
Protocol: Two photon imaging. Mice were prepared for in vivo imaging and imaged as described previously (Majewska and Sur, 2003). Briefly, primary visual cortex was identified using stereotaxic coordinates and either a small craniotomy was drilled in this area, or the skull was thinned without making a craniotomy. Imaging was performed with a custo m-made two-photon microscope consisting of a Ti:S laser (Tsunami, Spectra-physics, Menlo Park, Calif.) pumped by a 10W solid state source (Millennia, Spectra-physics) coupled to a modified Fluoview confocal scanhead (Olympus, Melville, N.Y.). Superficial dendrites were initially identified with wide-field epi-fluorescence illumination, and were subsequently imaged using a 60×, 0.9 N.A. lens with digital zoom (5-10×). Volumetric z-stacks were typically collected with a 800×600 acquisition window with 0.5-1 μm z-steps every five minutes over two hours. […]
Z-stack images were exported to MATLAB (Mathworks, Natick, Mass.) and processed using custom algorithms. Spine motility was analyzed on two-dimensional projections in ImageJ (NIH, Bethesda, Md.), where motility was defined as the average change in spine length per unit time (Lendvai et al., 2000; Majewska and Sur, 2003). […]

[2] = system: rats with spinal cord injury (SCI); assay: Recovery of locomotor function (BBB scale) after T10 contusive spinal cord injury; format: in vivo, Sprague-Dawley rats
Excerpt: FIGS. 8A and 8B show the effect of tPA on recovery of locomotor function graded on the BBB scale (y-axis; Basso et al., 1995 J. Neurotrauma) that ranges from 21 in normal rats to 0 in rats with complete hind limb paralysis. FIG. 8A presents a time course in which data points represent the group average±SEM (n=3/group) scored at different time points post T10 contusive injury. […] The dip of the curves starting at week 7 in both of the experimental groups was caused by the intra-cerebral cortex injections of axonal tract tracer BDA which was done at week 6 after injury. FIG. 8B presents a bar graph showing results of a second experiment in which data points represent the group average±SEM (n=7/group).
In a first set of experiments, 6 female Sprague-Dawley rats were anesthetized and spinal cord injury (SCI) was induced at TIO by using the New York University impactor with a 10 gm weight and a 12.5 mm weight drop. Behavioral tests were conducted on the first post-operative day and then weekly. The BBB (Basso, Beattie, Bresnahan) behavioral test was used to examine hind limb reflexes as well as coordinated use of the hind limbs (Basso et al., 1995; Basso, et al., 1996). This “BBB” scale has been adopted by the Multicenter Animal Spinal Cord Injury Study and by other workers in the field. […]

[3] = system: spinal cord injury epicenter tissue; assay: Histological analysis of the spinal cord injury epicenter (hematoxylin and eosin, solvent blue); format: in vivo, Sprague-Dawley rats
Excerpt: FIG. 9 presents micrographs showing the overall microscopic difference in injury epicenter pathology between rats receiving tPA or vehicle in the area of residual total tissue (hematoxylin and eosin stain).
FIG. 10 presents micrographs showing the overall difference between rats receiving tPA (left panel) or vehicle (right panel) in the typical cross-sectional area of residual total white matter (WM) at the injury epicenter (e.g. WM+hypomyelinated WM). […] In contrast, SB stain in the vehicle treated spinal cord was much weaker, indicating much lower quantity presence of myelin in the tissue.
Sections were stained with solvent blue [SB]/hematoxylin and eosin as described in Teng and Wrathall, 1997.
Three days post-operatively, a second operation was conducted at T8-T9 for a bolus micro-injection of 10 μg of tPA (human two-chain tissue plasminogen activator; American Diagnostica, Inc.) reconstituted from lyophilized powder to 10 μg/10 μL) into three of the six rats. Following the bolus injection, an osmotic minipump (Alzet Model 2002: 14 day pump) (Durect Corp., Cupertino, Calif.) loaded with tPA (200 μL total volume, delivering 0.5 μL/hour, 10 μg tPA/day) was implanted at the side of injury and delivered tPA for 10 consecutive days. […]

[4] = tPA activity in the solution remaining in implanted minipumps; format: physicochemical; conditions: rat body temperature; delivered from a minipump reservoir
Protocol: Three days post-operatively, a second operation was conducted at T8-T9 for a bolus micro-injection of 10 μg of tPA (human two-chain tissue plasminogen activator; American Diagnostica, Inc.) reconstituted from lyophilized powder to 10 μg/10 μL) into three of the six rats. Following the bolus injection, an osmotic minipump (Alzet Model 2002: 14 day pump) (Durect Corp., Cupertino, Calif.) loaded with tPA (200 μL total volume, delivering 0.5 μL/hour, 10 μg tPA/day) was implanted at the side of injury and delivered tPA for 10 consecutive days. At the 6th post-operative week, BDA and Fluorogold injections were made in cortex to assess the extent of corticospinal tract regrowth and reconnection, and at the 10th post-operative week, animals were perfused and their spinal cords were removed for histological analysis. Implanted minipumps were saved for analysis of tPA activity in the remaining solution.

[5] = system: rats with middle cerebral artery occlusion (MCAO); assay: Forelimb inhibition behavioral test after middle cerebral artery occlusion (MCAO); format: in vivo; conditions: intraventricular infusion 2 or 10 μg/day for 7 days, started 2 days after MCAO
Protocol: Twenty rats were trained on a battery of behavioral tasks until they achieved an asymptotic level of competence. Rats then received occlusion of the middle cerebral artery (MCAO) according to standard procedures. […] At the time of MCAO surgery, 10 of the 20 rats were also implanted with an osmotic mini-pump (Alzet model 2001, 7 day pump with […] and 1.0 μL/hour infusion) for intraventricular infusion contralateral to the site of the MCAO. The mini-pumps were filled with human two-chain tissue plasminogen activator (tPA; American Diagnostica, Inc.) at two different concentrations: 5 animals received 2 μg/day and 5 animals received 10 μg/day. tPA treatment was initiated 2 days following MCAO and was maintained for 7 days. Control and tPA-treated rats were subsequently tested weekly for behavioral recovery.
Initial results regarding one of the behavioral tests, forelimb inhibition, are striking. Normal animals rarely use their forelimbs while swimming across a test basin, a phenomenon referred to as “inhibition”. After stroke, this inhibition is reduced, so that forelimb use increases. […] On other tests, there was less difference between tPA treated animals and controls though this and other data is still being analyzed.

[6] = system: dendritic spines in visual cortex slices contralateral to the deprived eye; assay: Spine motility in visual cortex slices after monocular deprivation, followed by plasmin application (occlusion test); format: cell-based, mice
Protocol: Mice (C57/B16) expressing GFP (strain GFP-M) or YFP (strain YFP-H) in a subset of their cortical neurons (principally layer V pyramidal neurons) (Feng, G., et al., 2000) were anesthetized at postnatal days 26 or 40 and maintained in deep anesthesia using isoflurane. Monocular deprivation was performed by scoring the eyelids and then sealing them shut with tissue adhesive (Vetbond, 3M, St. Paul, Minn.). Mice were checked over the next 2-3 days to ensure that the eye remained closed. A total of 18 mice were used in the in vivo experiments (6 control, 4 deprived at p28; 4 control, 4 deprived at p42) and 24 mice were used in the slice experiments (15 control, 9 deprived).
Z-stack images were exported to MATLAB (Mathworks, Natick, Mass.) and processed using custom algorithms. Spine motility was analyzed on two-dimensional projections in ImageJ (NIH, Bethesda, Md.), where motility was defined as the average change in spine length per unit time (Lendvai et al., 2000; Majewska and Sur, 2003). Spine turnover was rarely observed in single imaging sessions. All values are presented as mean±standard error of the mean and all statistical analyses were performed using either a parametric t-test statistic for populations of monocularly deprived and control spines, or a parametric paired t-test statistic for enzymatic treatments.
Slice preparation and enzyme application. […]

Row | Molecule | effective dose for influencing axon growth (axon growth) | increase in spine motility [1] | final score on the BBB test ([2]; after 10 weeks of recovery, first experiment, n=3/group, 10 μg bolus then 10 μg tPA/day for 10 days by minipump, baseline 21) | BBB scores relative to control animals ([2]; second experiment, n=7/group, tPA delivered for 7 days) | appearance of the contusion site, hematoxylin and eosin staining ([3]; in comparison to control) | integrity of residual white matter at the injury epicenter, solvent blue stain ([3]; versus vehicle) | time for which tPA maintains enzymatic activity [4] | forelimb use while swimming (forelimb inhibition) [5] | spine motility after additional plasmin application, superficial layers ([6]; regions where motility is already upregulated, n=88, p>0.5) | spine motility after plasmin treatment, middle regions ([6]; regions where motility is unchanged by deprivation, n=60, p<0.0001)
1 | O=c1onc2cnc3ccccc3n12 [ODQ] | about 10 uM | – | – | – | – | – | – | – | – | –
2 | tissue plasminogen activator [tPA] | – | 17% | ~9 | improved BBB scores | remarkably clean | significantly protected the integrity of the residual white matter | up to 10 days | much less than control animals | – | –
3 | B1 | – | 21% | – | – | – | – | – | – | unaffected | significantly increased
